Experimental data from patent US12576070B2, “Medicine for improving state of pregnancy, and use thereof” (priority 2014, dated 2026).
Entries after “also recorded” stand apart in the source; their conditions may differ.

Experiments:
[1] = tested on: infertilitas patients with three or more consecutive miscarriages, stillbirths, or intrauterine fetal growth retardations; experiment: Tacrolimus treatment of infertilitas patients from establishment of pregnancy until delivery (Example 2); type: in vivo, human
Experimental: These patients were a group of patients for whom clear findings of abnormality related to infertility were not recognized with a serological examination that had been performed in advance.
The patients were evaluated through a transvaginal ultrasound examination, a Fallopian tube patency test, and hysteroscopy before an index ART cycle. Among the participants, no one had submucosal myoma, endometrial polyps, intrauterine adhesion, congenital abnormalities in the uterus, or hydrosalpinx. […] Any women who had experienced miscarriage in the previous IVF cycle, who had received an IVF cycle, or who had received vaccination, all within three months, were excluded from the subjects. Any women with acquired or congenital thrombophilia were excluded from the subjects.
The analysis was carried out according to the method described in Example 1. However, the determination of the Th1/Th2 cell ratio in a patient was carried out immediately after establishment of pregnancy (the day of confirming establishment of pregnancy). The level of the Th1/Th2 cell ratio was determined according to the average value+1 standard deviation method in the same manner as in Example 1, and a Th1/Th2 cell ratio that was equal to 10.3 or higher than that was classified as an increased Th1/Th2 cell ratio.
All of the eleven patients were subjected to treatment with tacrolimus in the same manner as in Example 1, except for the duration of administration. […] The duration of administration of tacrolimus was from the time point immediately after establishment of pregnancy was confirmed by a pregnancy test and the Th1/Th2 cell ratio was checked, until the day of delivery, in all cases.
The treatment was carried out in the same manner as in Example 1.
The analysis was carried out in the same manner as in Example 1.

[2] = tested on: kidney transplant recipients with tacrolimus exposure during pregnancy; details: cited from earlier work
[3] = tested on: repeated implantation failure (RIF) patients with elevated Th1/Th2 cell ratios; experiment: Tacrolimus treatment of repeated implantation failure (RIF) patients during IVF/ET, prospective cohort study (Example 1); type: in vivo, human
Experimental: This was a prospective cohort study of treatment for RIF patients (n=42) with elevated peripheral blood Th1 (CD4^+/IFN-γ^+)/Th2 (CD4^+/IL-4^+) cell ratios at the Sugiyama clinic between November 2011 and October 2013. Twenty-five patients were treated with tacrolimus (treatment group) and 17 received no treatment (control group).
Treatment group continuously received tacrolimus from two days before embryo transfer until the day of the pregnancy test, for a total of 16 days. The daily dose of tacrolimus (1-3 mg) was determined based on the degree of the Th1/Th2 cell ratio.
A total of 81 patients with a history of 5 or more RIF after IVF/ET cycles were consecutively enrolled in the study at the division of Reproductive Medicine, the Sugiyama clinic, Tokyo, Japan, between November 2011 and February 2014. This study was approved by the Institutional Review Board of the Sugiyama Clinic. A signed informed consent form was obtained from all patients prior to entering the study.
Study patients were assessed by transvaginal ultrasound, hysterosalpingography, and hysteroscopy before the index ART cycle. None of the participants had submucosal fibroids, endometrial polyps, intrauterine adhesions, congenital anomalies of uterus or hydrosalpinges. In addition, none of the women had any history of autoimmune disease. Pregnant women or women with chronic medical or inflammatory conditions were excluded. Women who miscarried in a former IVF cycle or had IVF cycles, or received vaccination in 3 months were excluded in the study. Women with acquired or inherited thrombophilia were also excluded in this study.
Blood was drawn between cycle day (CD) 5 and 10 prior to the index ART cycle for the evaluation of a baseline value of Th1/Th2 cell ratios. Forty-two patients had elevated Th1/Th2 cell ratio (≥10.3) and 39 had normal Th1/Th2 cell ratio (≤10.3). […] Blood was drawn between CD5 and CD10 of the menstrual cycle. A Th1/Th2 cell ratio equal to 10.3 or above was classified as an elevated Th1/Th2 cell ratio, which was determined by the mean plus one standard deviation of Th1/Th2 cell ratio levels.
For the evaluation of a baseline value of Th1/Th2 cell ratios, total 10 ml of venous blood was obtained. Th1 and Th2 cells were determined by detecting the intracellular interferon (IFN)-γ and IL-4 production.
The specific staining of lymphocytes was performed by incubating whole blood with anti-CD4-PC5 or anti-CD8-PC5-conjugated monoclonal antibodies (mAbs) (Beckman Coulter, Fullerton, Calif, USA). The red blood cells (RBCS) were then removed by lysis (FACS Lysing solution; Becton Dickinson, BD Biosciences, Franklin Lake. N.J., USA) and the lymphocytes were analyzed using flow cytometry (FACSCalibur; Becton Dickson). After surface staining of the activated whole blood samples with anti-CD4-PC5 conjugated mAbs, RBC lysis and specific intracellular staining using FASTIMMUNE™ IFN-γ-FITC/IL-4-PE (Becton Dickinson) were subsequently performed according to the manufacturer's instructions. Th1 cells were defined as CD4^+ lymphocytes with intracellular IFN-γ but without IL-4. Th2 cells were detected as CD4^+ lymphocytes with intracellular IL-4 but without IFN-γ. The ratio of IFN-γ to IL-4 positive Th cells was expressed as the Th1/Th2 cell ratio.
In 42 patients with elevated Th1/Th2 cytokine ratios (equal or above 10.3), 25 of them were treated with tacrolimus (PROGRAF®, Astellas Pharma, Tokyo; treatment group), and the others (n=17) were not treated (control group) during the index IVF/ET cycles. The patients in the treatment group began tacrolimus two days prior to ET and continued until the day of pregnancy test, for a total of 16 days. […]

[4] = infertilitas patients n = 11, tacrolimus 1-3 mg per day from confirmation of pregnancy until delivery
[5] = 236 babies born from kidney transplant recipients with tacrolimus exposure during pregnancy
[6] = kidney transplant recipients with tacrolimus exposure during pregnancy
[7] = 1 mg daily, n = 12, Th1/Th2 cell ratio ≥10.3 and <13.0
[8] = 2 mg daily, n = 8, Th1/Th2 cell ratio ≥13.0 and <15.8
[9] = 3 mg daily, n = 5, Th1/Th2 cell ratio ≥15.8
[10] = treatment group n = 25, tacrolimus 1-3 mg daily for 16 days
[11] = treatment group, 15 newborns, mean ± standard deviation
[12] = treatment group, 15 newborns, mean ± standard deviation, listed as tacrorimus

C=CCC1/C=C(\C)CC(C)CC(OC)C2OC(O)(C(=O)C(=O)N3CCCCC3C(=O)OC(/C(C)=C/C3CCC(O)C(OC)C3)C(C)C(O)CC1=O)C(C)CC2OC (centres unmarked) [tacrolimus, 17-Allyl-1,14-dihydroxy-12-[2-(4-hydroxy-3-methoxycyclohexyl)-1-methylvinyl]-23,2 5-dimethoxy-13,19,21,27-tetramethyl-11,28-dioxa-4-azatricyclo[22.3.1.04,9]octacos-18-ene-2,3,10,16-tetraone]
APGAR Score 1 minute ([1]; Full term birth (8 babies)): 8.0 ± 1.0
APGAR Score 5 minute ([1]; Full term birth (8 babies)): 9.0 ± 0.5
Birth weight (gm) ([1]; Full term birth (8 babies)): 3149 ± 234 gm
Complications of mother ([1]; Full term birth (8 babies)): 0
Complications of newborn baby ([1]; Full term birth (8 babies)): 0
Number of gestational days ([1]; Full term birth (8 babies)): 279.3 ± 6.0 days
Umbilical cord blood pH ([1]; Full term birth (8 babies)): 7.3 ± 0.12
APGAR Score 1 minute ([1]; Premature birth case): 6
APGAR Score 5 minute ([1]; Premature birth case): 8
Birth weight (gm) ([1]; Premature birth case): 748 gm
Number of gestational days ([1]; Premature birth case): 208 days
Umbilical cord blood pH ([1]; Premature birth case): 7.304
Complications of newborn baby ([1]; Premature birth case, Low birth weight baby): 1 (Low birth
Complications of mother ([1]; Premature birth case, Pregnancy-induced hypertension): 1 (Pregnancy-
Number of newborn babies (n): Miscarriage [1, 4]: 2 n
Number of newborn babies (n): Premature birth [1, 4]: 1 n
neonatal death rate [2, 5]: 2%
still born rate [2, 5]: 2%
obstetrical complications: diabetes during pregnancy [2, 6]: 8%
obstetrical complications: hypertension [2, 6]: 56%
obstetrical complications: infection [2, 6]: 22%
obstetrical complications: preeclampsia [2, 6]: 32%
obstetrical complications: spontaneous abortion [2, 6]: 26%
Clinical pregnancy with 1 mg of tacrolimus (%) [3, 7]: 83.3%
Live birth with 1 mg of tacrolimus (%) [3, 7]: 83.3%
Clinical pregnancy With 2 mg of tacrolimus [3, 8]: 50.0%
Live birth With 2 mg of tacrolimus [3, 8]: 37.5%
Clinical pregnancy with 3 mg of tacrolimus [3, 9]: 40.0%
Live birth with 3 mg of tacrolimus [3, 9]: 40.0%
FET success rate relative to reported success rate (39%) of women under 35 ([3]; FET cycle with tacrolimus, 75% versus 2011 CDC report 39%): 1.9 times
Positive hCG (%) ([3]; RIF patients with elevated Th1/Th2 cell ratio, treatment group n = 25, tacrolimus 1-3 mg daily for 16 days from two days before ET): 64%
birth weight (mean±SD) ([3]; newborns of the treatment group, as given in the text): 2,995±400 g
Spontaneous abortion rate (%) ([3]; pregnant patients of the treatment group, one miscarriage at 10 weeks gestation): 6.3%
Side effect from tacrolimus ([3]; treatment group n = 25, 1-3 mg daily for 16 days): no significant side effect; also recorded: no one reported side effect
Clinical pregnancy rate per ET (%) [3, 10]: 64.0%
Live birth rate (%) [3, 10]: 60%
Implantation rate (%) ([3]; treatment group n = 25, tacrolimus 1-3 mg daily for 16 days from two days before ET, 16/35): 45.7%
APGAR score at 1 minutes after birth [3, 11]: 8.3±0.5
APGAR score at 5 minutes after birth [3, 11]: 9.2±0.5
Gestational days to delivery [3, 11]: 279.5 ± 10.6 days
Umbilical cord gas analysis (pH) [3, 11]: 7.2 ± 0.05 pH
Birth weight (gm) ([3]; treatment group, 15 newborns, mean ± standard deviation (Table 4)): 3,021 ± 371 gm
APGAR score at 1 minutes after birth [3, 12]: 8.3 ± 0.5
APGAR score at 5 minutes after birth [3, 12]: 9.2 ± 0.6
Gestational days to delivery [3, 12]: 279.5 ± 10.6 days
Live birth rate of fresh ET (%) ([3]; treatment group, fresh ET (n = 9)): 33.3%
Clinical pregnancy of fresh ET (%) ([3]; treatment group, fresh ET (n = 9), tacrolimus 1-3 mg daily for 16 days): 44.4%
Live birth rate of thawed ET (%) ([3]; treatment group, frozen-thawed ET (n = 16)): 75%
Clinical pregnancy of cryo-thaw ET (%) ([3]; treatment group, frozen-thawed ET (n = 16), tacrolimus 1-3 mg daily for 16 days): 75%
Number of newborns ([3]; women with multiple implantation failures (5 or more) treated with tacrolimus): 15
